Measurements as given in patent US11766425B2, “Antibiotic combination therapies” (BIOVERSYS AG, priority 2019, dated 2023).
Where two headings read alike, the source gives them in different places.

Assays:
Format in all cases: cell-based, Acinetobacter baumannii
A. baumannii IHMA919656 = experiment: broth microdilution checkerboard MIC/synergy; settings: strain IHMA919656
Protocol: (§1) Checkerboards were performed according to the CLSI parameters used for microbroth dilution MIC5. CA-MHB, iron-depleted CA-MHB (ID-CA-MHB) or RPMI supplemented with 10% FCS medium were used as specified and ID-CA-MHB was prepared according to CLSI guidelines. […] FICI is calculated as follows: […]

A. baumannii IHMA867231 = experiment: broth microdilution checkerboard MIC/synergy; settings: for MIC: Acinetobacter baumannii, IHMA867231, strain IHMA867231, read-out: MICs alone
Protocol: as §1

A. baumannii IHMA690517 = experiment: broth microdilution checkerboard MIC/synergy; settings: strain IHMA690517
Protocol: as §1

A. baumannii UNT191-1 = experiment: broth microdilution checkerboard MIC/synergy
Protocol: as §1

A. baumannii IHMA863866 = experiment: broth microdilution checkerboard MIC/synergy; settings: strain IHMA863866
Protocol: as §1

A. baumannii 401046-18 = experiment: broth microdilution checkerboard MIC/synergy; settings: for MIC: Acinetobacter baumannii, 40104618, strain 401046-18, read-out: MICs alone
Protocol: as §1

A. baumannii ACC00535 = experiment: broth microdilution checkerboard MIC/synergy; settings: strain ACC00535; rifabutin/SPR741 in combination
Protocol: as §1

A. baumannii UNT091-1 = experiment: broth microdilution checkerboard MIC/synergy
Protocol: as §1

A. baumannii UNT087-1 = experiment: broth microdilution checkerboard MIC/synergy
Protocol: as §1

A. baumannii 401255-18 = experiment: broth microdilution checkerboard MIC/synergy; settings: for MIC: Acinetobacter baumannii, 40125518, strain 401255-18, read-out: MICs alone
Protocol: as §1

A. baumannii IHMA1013816 = experiment: broth microdilution checkerboard MIC/synergy; settings: strain IHMA1013816
Protocol: as §1

A. baumannii UNT239-1 = experiment: broth microdilution checkerboard MIC/synergy; settings: strain UNT239-1
Protocol: as §1

A. baumannii UNT238-1 = experiment: broth microdilution checkerboard MIC/synergy; settings: strain UNT238-1
Protocol: as §1

A. baumannii 402292-17 = experiment: broth microdilution checkerboard MIC/synergy; settings: for MIC: Acinetobacter baumannii, 40229217, strain 402292-17, read-out: MICs alone
Protocol: as §1

A. baumannii HUMC1 = experiment: broth microdilution checkerboard MIC/synergy; settings: strain HUMC1
Protocol: as §1

A. baumannii 402608-17 = experiment: broth microdilution checkerboard MIC/synergy; settings: for MIC: Acinetobacter baumannii, 40260817, strain 402608-17, read-out: MICs alone
Protocol: as §1

[1] = test system: A. baumannii LAC-4 strain; experiment: broth microdilution checkerboard MIC/synergy; settings: strain LAC-4
Protocol: as §1
The checkerboards were performed in CA-MHB or ID-CA-MHB for cefiderocol.

[2] = test system: panel of MDR clinical isolates of A. baumannii
Protocol: as §1

[3] = rifabutin/SPR741 in combination
[4] = rifabutin/cefiderocol in combination
[5] = rifabutin/colistin in combination, CA-MHB
[6] = antibiotic alone, rifabutin/cefiderocol checkerboard
[7] = antibiotic alone, rifabutin/colistin checkerboard, CA-MHB
[8] = rifabutin alone, rifabutin/SPR741 checkerboard
[9] = rifabutin/cefiderocol in combination, ID-CA-MHB

CO[C@H]1/C=C/O[C@@]2(C)Oc3c(C)c(O)c4c(c3C2=O)C2=NC3(CCN(CC(C)C)CC3)NC2=C(NC(=O)/C(C)=C\C=C\[C@H](C)[C@H](O)[C@@H](C)[C@@H](O)[C@@H](C)[C@H](OC(C)=O)[C@@H]1C)C4=O [Rifabutin, rifabutin]
MICs combi / in combination (A. baumannii IHMA919656; [3]): 1 mg/L
MICs combi (A. baumannii IHMA919656; [4]): 4 mg/L
MICs combi (A. baumannii IHMA919656; [5]): 0.03 mg/L
MIC (A. baumannii IHMA867231; [6]): > 128 µg/mL
MIC (A. baumannii IHMA867231; [7]): > 128 µg/mL
MIC (A. baumannii IHMA867231; [8]): > 32 µg/mL
MICs combi / in combination (A. baumannii IHMA867231; strain IHMA867231, rifabutin/SPR741 in combination): >32 mg/L
MICs combi (A. baumannii IHMA867231; strain IHMA867231, rifabutin/cefiderocol in combination): 128 mg/L
MICs combi (A. baumannii IHMA867231; strain IHMA867231, rifabutin/colistin in combination, CA-MHB): 2 mg/L
MICs combi / in combination (A. baumannii IHMA690517; [3]): 1 mg/L
MICs combi (A. baumannii IHMA690517; [4]): 4 mg/L
MICs combi (A. baumannii IHMA690517; [5]): 0.06 mg/L
MIC (A. baumannii UNT191-1; Acinetobacter baumannii, UNT1911, strain UNT191-1, antibiotic alone, rifabutin/colistin checkerboard, CA-MHB, read-out: MICs alone): 16 µg/mL
MICs combi / in combination (A. baumannii UNT191-1; strain UNT191-1, rifabutin/SPR741 in combination): 0.5 mg/L
MICs combi (A. baumannii UNT191-1; strain UNT191-1, rifabutin/cefiderocol in combination, ID-CA-MHB): 0.5 mg/L
MICs combi (A. baumannii UNT191-1; strain UNT191-1, rifabutin/colistin in combination, CA-MHB): <0.03 mg/L
MICs alone (A. baumannii IHMA863866; [7]): 4 mg/L
MICs alone (A. baumannii IHMA863866; [8]): 4 mg/L
MICs combi / in combination (A. baumannii IHMA863866; [3]): 2 mg/L
MICs combi (A. baumannii IHMA863866; [4]): 0.125 mg/L
MICs combi (A. baumannii IHMA863866; [5]): 0.06 mg/L
MIC (A. baumannii 401046-18; antibiotic alone, rifabutin/cefiderocol checkerboard, ID-CA-MHB): 32 µg/mL
MIC (A. baumannii 401046-18; [7]): 64 µg/mL
MIC (A. baumannii 401046-18; [8]): > 32 µg/mL
MICs combi / in combination (A. baumannii 401046-18; strain 401046-18, rifabutin/SPR741 in combination): 2 mg/L
MICs combi (A. baumannii 401046-18; strain 401046-18, rifabutin/cefiderocol in combination, ID-CA-MHB): 16 mg/L
MICs combi (A. baumannii 401046-18; strain 401046-18, rifabutin/colistin in combination, CA-MHB): 1 mg/L
MICs combi / in combination (A. baumannii ACC00535): 0.5 mg/L
MIC (A. baumannii UNT091-1; Acinetobacter baumannii, UNT0911, strain UNT091-1, rifabutin alone, rifabutin/SPR741 checkerboard, read-out: MICs alone): 0.25 µg/mL
MICs combi / in combination (A. baumannii UNT091-1; strain UNT091-1, rifabutin/SPR741 in combination): 0.06 mg/L
MICs combi (A. baumannii UNT091-1; strain UNT091-1, rifabutin/cefiderocol in combination): 2 mg/L
MICs combi (A. baumannii UNT091-1; strain UNT091-1, rifabutin/colistin in combination, CA-MHB): <0.03 mg/L
MIC (A. baumannii UNT087-1; Acinetobacter baumannii, UNT0871, strain UNT087-1, antibiotic alone, rifabutin/colistin checkerboard, CA-MHB, read-out: MICs alone): 16 µg/mL
MICs combi / in combination (A. baumannii UNT087-1; strain UNT087-1, rifabutin/SPR741 in combination): 0.25 mg/L
MICs combi (A. baumannii UNT087-1; strain UNT087-1, rifabutin/cefiderocol in combination): 4 mg/L
MICs combi (A. baumannii UNT087-1; strain UNT087-1, rifabutin/colistin in combination, CA-MHB): 0.5 mg/L
MIC (A. baumannii 401255-18; [6]): 32 µg/mL
MIC (A. baumannii 401255-18; [7]): 128 µg/mL
MIC (A. baumannii 401255-18; [8]): > 32 µg/mL
MICs combi / in combination (A. baumannii 401255-18; strain 401255-18, rifabutin/SPR741 in combination): 2 mg/L
MICs combi (A. baumannii 401255-18; strain 401255-18, rifabutin/cefiderocol in combination): 16 mg/L
MICs combi (A. baumannii 401255-18; strain 401255-18, rifabutin/colistin in combination, CA-MHB): 2 mg/L
MICs combi / in combination (A. baumannii IHMA1013816; [3]): 2 mg/L
MICs combi (A. baumannii IHMA1013816; [4]): 4 mg/L
MICs combi (A. baumannii IHMA1013816; [5]): 0.125 mg/L
MICs alone (A. baumannii UNT239-1; [7]): 4 mg/L
MICs alone (A. baumannii UNT239-1; [8]): 4 mg/L
MICs combi / in combination (A. baumannii UNT239-1; [3]): 0.25 mg/L
MICs combi (A. baumannii UNT239-1; [9]): 1 mg/L
MICs combi (A. baumannii UNT239-1; [5]): 1 mg/L
MICs combi / in combination (A. baumannii UNT238-1; [3]): 0.125 mg/L
MICs combi (A. baumannii UNT238-1; [9]): 4 mg/L
MICs combi (A. baumannii UNT238-1; [5]): 2 mg/L
MIC (A. baumannii 402292-17; [6]): > 128 µg/mL
MIC (A. baumannii 402292-17; [7]): > 128 µg/mL
MIC (A. baumannii 402292-17; [8]): > 32 µg/mL
MICs combi / in combination (A. baumannii 402292-17; strain 402292-17, rifabutin/SPR741 in combination): 2 mg/L
MICs combi (A. baumannii 402292-17; strain 402292-17, rifabutin/cefiderocol in combination): 128 mg/L
MICs combi (A. baumannii 402292-17; strain 402292-17, rifabutin/colistin in combination, CA-MHB): 4 mg/L
MICs alone (A. baumannii HUMC1; [7]): 4 mg/L
MICs alone (A. baumannii HUMC1; [8]): 4 mg/L
MICs combi / in combination (A. baumannii HUMC1; [3]): 0.25 mg/L
MICs combi (A. baumannii HUMC1; [4]): 4 mg/L
MICs combi (A. baumannii HUMC1; [5]): 0.125 mg/L
MIC (A. baumannii 402608-17; [6]): 128 µg/mL
MIC (A. baumannii 402608-17; [7]): 128 µg/mL
MIC (A. baumannii 402608-17; [8]): > 32 µg/mL
MICs combi / in combination (A. baumannii 402608-17; strain 402608-17, rifabutin/SPR741 in combination): 2 mg/L
MICs combi (A. baumannii 402608-17; strain 402608-17, rifabutin/cefiderocol in combination): 32 mg/L
MICs combi (A. baumannii 402608-17; strain 402608-17, rifabutin/colistin in combination, CA-MHB): 2 mg/L
MICs alone [1, 7]: 4 mg/L
MICs alone [1, 8]: 4 mg/L
MICs combi / in combination [1, 3]: 0.06 mg/L
MICs combi [1, 9]: 1 mg/L
MICs combi [1, 5]: 0.016 mg/L
rifabutin combination MICs ([2]; in combination with SPR741, most of the strains): 0.125 to 2 mg/L
shift in rifabutin MIC ([2]; in combination with colistin, isolates with a mutation in the rpoB gene): ≥ 32 fold
